These results are taken from US9375000B2, “Pesticidal arylpyrrolidines” (Bayer Intellectual Property GmbH, priority 2011, dated 2016).

Format in all cases: in vivo
Assay [1] concerns Cucurbit Leaf Beetle (Aulacophora femoralis). Description: Cucurbit leaf beetle (Aulacophora femoralis) cucumber leaf dip test. To be noted: after 7 days. The method in brief:
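Cucumber leaves dipped in compound formulated with DMF and polyoxyethylene alkyl phenyl ether, diluted in water, with ammonium salt or ammonium salt plus penetration enhancer at 1000 ppm added if necessary; dried leaves placed on sterilized soil with five second-instar larvae. Kept at 25° C; larval mortality counted after 7 days.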

Assay [2] concerns Larvae of Spodoptera litura. Description: Larvae of Spodoptera litura, method using artificial feeds. As to conditions: artificial feed, after 7 days. The essentials: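 Compound formulated in dimethylformamide with polyoxyethylene alkyl phenyl ether emulsifier, water-diluted and poured onto artificial diet. Five 3rd-instar Spodoptera litura larvae per cup, held at 25° C and 50-60% humidity. Mortality after 7 days expressed as pesticidal ratio.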

Assay [3] concerns Two-Spotted Spider Mite (Tetranychus urticae). Description: Two-spotted spider mite (Tetranychus urticae) spray test on kidney bean. To be noted: after 7 days. The essentials:
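Kidney bean plants at the two-leaf stage carried 50-100 adult mites and were sprayed one day later with compound in DMF/polyoxyethylene alkyl phenyl ether diluted in water. Ammonium salt and penetration enhancer at 1000 ppm were added if needed. Acaricidal activity (% mites killed) was scored after 7 days in a greenhouse.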

Setting [4] is: active compound concentration 20 ppm.
The mark [5] stands for this setting: active compound concentration 4 ppm.
The mark [6] stands for this setting: active compound concentration 100 ppm.

`CCC(=O)NCc1ccc(N2CCC(c3cc(F)c(F)c(F)c3)(C(F)(F)F)C2O)cc1C(F)(F)F` (centres unmarked) [A1-261] returned an insecticidal activity in assay [1] (setting [4]) of 100%. In addition, the “insecticidal activity (pesticidal ratio)” value in assay [2] (setting [5]) and in assay [2] (setting [4]) was 100% each time. In assay [3] (setting [4]), the acaricidal activity stood at 100%.
Regarding `O=C(NCc1ccc(N2CCC(c3cc(F)c(F)c(F)c3)(C(F)(F)F)C2O)cc1C(F)(F)F)C1CC1` (centres unmarked) [A1-264], the insecticidal activity in assay [1] (setting [5]) and in assay [1] (setting [4]) was 100% throughout. Moreover, the “insecticidal activity (pesticidal ratio)” value in assay [2] (setting [5]) was found to be 80%. The same compound returned an acaricidal activity in assay [3] (setting [4]) of 100%.
In assay [1] (setting [4]), `CCC(=O)NCc1ccc(N2CCC(c3cc(Cl)c(F)c(Cl)c3)(C(F)(F)F)C2O)cc1C(F)(F)F` (centres unmarked) [A1-272] displayed an insecticidal activity of 100%. In addition, the “insecticidal activity (pesticidal ratio)” value in assay [2] (setting [4]) is listed as 100%. The same compound came in with an acaricidal activity in assay [3] (setting [4]) of 100%.
For the compound `O=C(NCc1ccc(N2CCC(c3cc(Cl)c(F)c(Cl)c3)(C(F)(F)F)C2O)cc1C(F)(F)F)C1CC1` (centres unmarked) [A1-275], in assay [1] (setting [4]), the insecticidal activity is on record as 100%. In addition, the “insecticidal activity (pesticidal ratio)” value in assay [2] (setting [4]) came out at 100%. The acaricidal activity in assay [3] (setting [4]) stood at 100%.
Consider `CCC(=O)NCc1ccc(N2CCC(c3cc(Cl)c(F)c(Cl)c3F)(C(F)(F)F)C2O)cc1C(F)(F)F` (centres unmarked) [A1-283, N-{4-[3-(3,5-dichloro-2,4-difluorophenyl)-2-hydroxy-3-(trifluoromethyl)pyrrolidin-1-yl]-2-(trifluoromethyl)benzyl}propanamide], for which the pest or weed control at 20 ppm in assay [1] (Aulacophora, foliar, 168 h, active compound concentration 20 ppm, read-out: insecticidal activity) stood at 100%; in assay [2] (Spodoptera litura, 168 h, active compound concentration 20 ppm, read-out: insecticidal activity (pesticidal ratio)) it was 100%; in assay [3] (Tetranychus urticae, 168 h, active compound concentration 20 ppm, read-out: acaricidal activity), 100%.
For `O=C(NCc1ccc(N2CCC(c3cc(Cl)c(F)c(Cl)c3F)(C(F)(F)F)C2O)cc1C(F)(F)F)C1CC1` (centres unmarked) [A1-286], the insecticidal activity in assay [1] (setting [4]) worked out at 100%. The “insecticidal activity (pesticidal ratio)” value in assay [2] (setting [4]) was determined as 100%. This compound yielded an acaricidal activity in assay [3] (setting [4]) of 100%.
`CCC(=O)NCc1ccc(N2CCC(c3cc(Cl)cc(C(F)(F)F)c3)(C(F)(F)F)C2O)cc1C(F)(F)F` (centres unmarked) [A1-338] yielded an insecticidal activity in assay [1] (setting [4]) of 100%. Besides, the “insecticidal activity (pesticidal ratio)” value in assay [2] (setting [4]) is 100%. For the same compound, in assay [3] (setting [4]), the acaricidal activity is on record as 100%.
Compound `O=C(NCc1ccc(N2CCC(c3cc(Cl)cc(C(F)(F)F)c3)(C(F)(F)F)C2O)cc1C(F)(F)F)C1CC1` (centres unmarked) [A1-341] displayed an insecticidal activity in assay [1] (setting [4]) of 100%. Moreover, in assay [2] (setting [4]), the “insecticidal activity (pesticidal ratio)” value came out at 100%. This compound also showed an acaricidal activity in assay [3] (setting [4]) of 100%.
As for `CS(=O)(=O)CC(=O)NCc1ccc(N2CCC(c3cc(Cl)cc(C(F)(F)F)c3)(C(F)(F)F)C2O)cc1C(F)(F)F` (centres unmarked) [A1-347], the insecticidal activity in assay [1] (setting [4]) was 100%. Also, the “insecticidal activity (pesticidal ratio)” value in assay [2] (setting [4]) stood at 100%. In assay [3] (setting [4]), this compound gave an acaricidal activity of 100%.
On to `O=C(NCc1ccc(N2CCC(c3cc(Cl)cc(Cl)c3)(C(F)(F)F)C2O)cc1C(F)(F)F)C1CCC1` (centres unmarked) [A1-361], for which the insecticidal activity in assay [1] (setting [4]) worked out at 100%. Further, the “insecticidal activity (pesticidal ratio)” value in assay [2] (setting [4]) turned out to be 100%. For the same compound, the acaricidal activity in assay [3] (setting [4]) was 100%.
`CC(=O)NCc1ccc(N2CCC(c3cc(Cl)cc(Cl)c3F)(C(F)(F)F)C2O)cc1C(F)(F)F` (centres unmarked) [A1-405] displayed an insecticidal activity in assay [1] (setting [5]) of 100%. In addition, the “insecticidal activity (pesticidal ratio)” value in assay [2] (setting [5]) was found to be 100%. Also, the acaricidal activity in assay [3] (setting [5]) was 100%.
In the case of `CCC(=O)NCc1ccc(N2CCC(c3cc(Cl)cc(Cl)c3F)(C(F)(F)F)C2O)cc1C(F)(F)F` (centres unmarked) [A1-406], in assay [1] (setting [5]), the insecticidal activity turned out to be 100%. Besides, in assay [2] (setting [5]), the “insecticidal activity (pesticidal ratio)” value is 100%. In assay [3] (setting [5]), the acaricidal activity stood at 100%.
The compound `CC(=O)NCc1ccc(N2CCC(c3cc(Cl)c(F)c(Cl)c3F)(C(F)(F)F)C2O)cc1Br` (centres unmarked) [A1-429] gave an insecticidal activity in assay [1] (setting [5]) of 100%. Moreover, the “insecticidal activity (pesticidal ratio)” value in assay [2] (setting [5]) worked out at 100%. In assay [3] (setting [4]), the acaricidal activity is 100%.
In assay [1] (setting [5]), `CCC(=O)NCc1ccc(N2CCC(c3cc(Cl)c(F)c(Cl)c3F)(C(F)(F)F)C2O)cc1Br` (centres unmarked) [A1-430] returned an insecticidal activity of 100%. Besides, the “insecticidal activity (pesticidal ratio)” value in assay [2] (setting [5]) amounted to 100%. This compound also registered an acaricidal activity in assay [3] (setting [4]) of 100%.
On to `CCC(=O)NCc1cc(F)c(N2CCC(c3cc(Cl)c(Cl)c(Cl)c3)(C(F)(F)F)C2O)cc1F` (centres unmarked) [A1-454], for which the insecticidal activity in assay [1] (setting [4]) amounted to 100%. Besides, the “insecticidal activity (pesticidal ratio)” value in assay [2] (setting [4]) was 100%. Also, the acaricidal activity in assay [3] (setting [4]) is given as 100%.
In assay [1] (setting [5]), `N#CCC(=O)NCc1ccc(N2CCC(c3cc(C(F)(F)F)cc(C(F)(F)F)c3)(C(F)(F)F)C2O)cc1C(F)(F)F` (centres unmarked) [A1-528] gave an insecticidal activity of 100%. For the same compound, the “insecticidal activity (pesticidal ratio)” value in assay [2] (setting [5]) turned out to be 100%. The acaricidal activity in assay [3] (setting [5]) is reported as 98%.
In assay [1] (setting [6]), `CC(C)(C)OC(=O)NCc1ccc(N2CCC(c3cc(Cl)c(Cl)c(Cl)c3)(C(F)(F)F)C2O)cc1` (centres unmarked) [A1-575] gave an insecticidal activity of 100%. In addition, the “insecticidal activity (pesticidal ratio)” value in assay [2] (setting [6]) is 80%. In addition, the acaricidal activity in assay [3] (setting [6]) was 98%.
The compound `CC(=O)NCc1ccc(N2CCC(c3cc(Cl)cc(Cl)c3)(C(F)(F)F)C2O)nc1C(F)(F)F` (centres unmarked) [A3-1] showed an insecticidal activity in assay [1] (setting [4]) of 100%. Moreover, in assay [2] (setting [4]), the “insecticidal activity (pesticidal ratio)” value was 100%. The acaricidal activity in assay [3] (setting [4]) was found to be 100%.
`O=C(NCc1ccc(N2CCC(c3cc(Cl)cc(Cl)c3)(C(F)(F)F)C2O)nc1C(F)(F)F)C1CC1` (centres unmarked) [A3-5] returned an insecticidal activity in assay [1] (setting [4]) of 100%. In addition, in assay [2] (setting [4]), the “insecticidal activity (pesticidal ratio)” value was 100%. This compound also registered an acaricidal activity in assay [3] (setting [4]) of 100%.
Compound `O=C(CC(F)(F)F)NCc1ccc(N2CCC(c3cc(Cl)cc(Cl)c3)(C(F)(F)F)C2O)nc1C(F)(F)F` (centres unmarked) [A3-7] had an insecticidal activity in assay [1] (setting [4]) of 100%. Also, in assay [2] (setting [4]), the “insecticidal activity (pesticidal ratio)” value was found to be 100%. Further, the acaricidal activity in assay [3] (setting [4]) amounted to 100%.
With `CC(=O)NCc1ccc(N2CCC(c3cc(Cl)c(Cl)c(Cl)c3)(C(F)(F)F)C2O)nc1C(F)(F)F` (centres unmarked) [A3-12], in assay [1] (setting [4]), the insecticidal activity was 100%. For the same compound, in assay [2] (setting [4]), the “insecticidal activity (pesticidal ratio)” value was determined as 100%. This compound returned an acaricidal activity in assay [3] (setting [4]) of 100%.
For `COCCC(=O)NCc1ccc(N2CCC(c3cc(Cl)c(Cl)c(Cl)c3)(C(F)(F)F)C2O)nc1C(F)(F)F` (centres unmarked) [A3-19], the insecticidal activity in assay [1] (setting [5]) and in assay [1] (setting [4]) was 100% throughout. The “insecticidal activity (pesticidal ratio)” value in assay [2] (setting [5]) and in assay [2] (setting [4]) was 100% each time. Also, the acaricidal activity in assay [3] (setting [5]) and in assay [3] (setting [4]) was 100% each time.
In assay [1] (setting [4]), `CS(=O)(=O)CC(=O)NCc1ccc(N2CCC(c3cc(Cl)c(Cl)c(Cl)c3)(C(F)(F)F)C2O)nc1C(F)(F)F` (centres unmarked) [A3-22] gave an insecticidal activity of 100%. Moreover, the “insecticidal activity (pesticidal ratio)” value in assay [2] (setting [4]) turned out to be 100%. For the same compound, in assay [3] (setting [4]), the acaricidal activity was 100%.
`CC(=O)NCc1ccc(N2CCC(c3cc(C(F)(F)F)cc(C(F)(F)F)c3)(C(F)(F)F)C2O)nc1C(F)(F)F` (centres unmarked) [A3-23] had an insecticidal activity in assay [1] (setting [4]) of 100%. The “insecticidal activity (pesticidal ratio)” value in assay [2] (setting [4]) is recorded as 100%. Moreover, in assay [3] (setting [4]), the acaricidal activity is reported as 100%.
In assay [1] (setting [4]), `CCC(=O)NCc1ccc(N2CCC(c3cc(C(F)(F)F)cc(C(F)(F)F)c3)(C(F)(F)F)C2O)nc1C(F)(F)F` (centres unmarked) [A3-24] gave an insecticidal activity of 100%. For the same compound, in assay [2] (setting [4]), the “insecticidal activity (pesticidal ratio)” value is 100%. The same compound had an acaricidal activity in assay [3] (setting [4]) of 100%.
Regarding `O=C(CC1CC1)NCc1ccc(N2CCC(c3cc(C(F)(F)F)cc(C(F)(F)F)c3)(C(F)(F)F)C2O)nc1C(F)(F)F` (centres unmarked) [A3-28], the insecticidal activity in assay [1] (setting [4]) turned out to be 100%. The “insecticidal activity (pesticidal ratio)” value in assay [2] (setting [4]) is on record as 100%. Further, in assay [3] (setting [4]), the acaricidal activity is listed as 100%.
